In patent US20210009542A1 (Calico Life Sciences LLC, priority 2018, published 2021):
Like-named read-outs stand apart in the source and are kept apart here.

What was measured:
[1] = system: B16F10 mouse melanoma cells; experiment: B16F10 IFNγ-induced cellular growth inhibition assay; format: cell-based; conditions: for inhibition at 33 µM: Mus musculus, B16-F10
Outline: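 Live-cell imaging of confluence every 6 h over 5 days at 37 °C tracked growth of mouse B16F10 melanoma cells seeded overnight at 500/well. Semi-log compound series (final 100–0.001 μM, 0.1% DMSO) ran in both arms, ±IFNγ at 0.5 ng/mL final; inhibition taken relative to DMSO plus IFNγ when IFNγ-free DMSO wells passed 95% confluence.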

[2] = system: Pan T cells isolated from C57BL6 splenocytes; experiment: T cell activation assay (flow cytometry, CD25/CD69 on CD8 T cells); format: cell-based, mouse; conditions: for % CD25 within CD8+ / % CD69 within CD8+ / CD25 MFI / CD69 MFI: 30 μM compound, 2 days; for T cell activation and T cell function: with TCR stimulation
Procedure: (§1) Pan T cells were isolated from C57BL6 splenocytes using a MACS Pan T cell isolation kit II (Miltenyi Biotec, Auburn, Calif.) according to the manufacturer's instructions. Isolated T cells (200,000 cells/well in a 96 well flat-bottom plate) were cultured in RPMI 1640 supplemented with 10% FBS, […] 2-mercatoethanol, 100 U/mL penicillin, and 100 μg/mL streptomycin, and incubated with the indicated concentration of compound or DMSO in duplicates. After 1 hour, mouse T cell activator CD3/CD28 Dynabeads (ThermoFisher Scientific, Waltham, Mass.) were added at a 1:5 beads to cells ratio to stimulate the T cells for 2 or 3 days as outlined below. T cells with or without compound were incubated in the absence of T cell activator beads (media only) as control.
After 2 days of stimulation, activation status of T cells was assessed by flow cytometry. T cells were first subjected to Zombie Violet™ Fixable Viability dye (BioLegend, San Diego, Calif.) for dead cell exclusion, washed and then stained with BUV805 labeled anti-CD8, APC-R700 labeled anti-CD25 (both from BD Biosciences, San Jose, Calif.) and PE labeled anti-CD69 (BioLegend, San Diego, Calif.) antibodies. After staining, cells were fixed with 2% paraformaldehyde and acquired on a BD LSRFortessa™ X-20 flow cytometer (BD Biosciences, San Jose, Calif.) using BD FACSDiva™ software. Data was analyzed using FlowJo V10 (Flow Jo LLC, Ashland, Oreg.). Dead cells were excluded and frequencies of activated CD8 T cells was reported as the frequency of CD25+ or CD69+ cells within the CD8+ population. The expression level of CD25 and CD69 indicates the activation status of cells on a per cell basis and was evaluated by the mean fluorescence intensities (MFI) of CD25 and CD69.

[3] = system: Pan T cells isolated from C57BL6 splenocytes; experiment: T cell function assay (IFNγ and TNFα in supernatants, MSD V-plex); format: cell-based, mouse; conditions: 30 μM compound, 3 days, supernatant
Procedure: as §1
After 3 days of stimulation, supernatants were collected and IFNγ and TNFα in supernatants were assessed using an MSD V-plex assay (Meso Scale Discovery, Rockville, Md.).

[4] = system: MC-38 murine colon adenocarcinoma; experiment: In vivo efficacy in MC38 tumor model; conditions: for mice that achieved complete cures / tolerability / Tumor Growth Inhibition (Max) compared to vehicle [%]: 300 mg/kg/dose oral BID for 21 days; for Tumor Growth Inhibition (Max) compared to vehicle [%]: C57Bl/6 mice, TGIMax over the entirety of the study; for tumor response observed: within 7-10 days of treatment
Procedure: All experiments were conducted in compliance with AbbVie's Institutional Animal Care and Use Committee and the National Institutes of Health Guide for Care and Use of Laboratory Animals guidelines in a facility accredited by the Association for the Assessment and Accreditation of Laboratory Animal Care. C57Bl/6 female mice were obtained from Charles River (Wilmington, Mass.). The mice were group-housed 10 per cage. Food and water were available ad libitum. Animals were acclimated to the animal facilities for a period of at least one week prior to commencement of experiments. Animals were tested in the light phase of a 12-hour light:12-hour dark schedule (lights on 0600 hours).
Cells were grown to passage 3 in vitro. A total of 1×10^5 viable MC-38 cells were inoculated subcutaneously into the right flank of female C57Bl/6 mice (7-12 weeks old) on Day 0. The injection volume was 0.1 mL and was composed of a 1:1 mixture of S-MEM and Matrigel® (Corning, N.Y., USA). […] The mean tumor volume (TV) at size match was approximately 116±8 mm^3. Following size match, treatments were initiated on the same day. […] Compound 124 was formulated in 5% DMSO, 5% Tween 80 (Polysorbate 80), 20% PEG-400 and 70% D5W (5% dextrose in water) and was dosed at 10 mL/kg. […] Tumor volume was calculated three times weekly. Measurements of the length (L) and width (W) of the tumor were taken via electronic caliper and the volume was calculated according to the following equation: V=L×W^2/2 using Study Director Version 3.1.399.22 (Studylog Systems, Inc, CA, USA). Mice were euthanized when tumor volume was […] or skin ulcerations occurred. […] Reported TGIMax is the largest TGI value for any timepoint that tumors volumes were collected for that treatment group.

[5] = +0.5 ng/mL IFNγ, 33 μM compound, relative to DMSO control, read-out: % B16F10 growth inhibition (+0.5 ng/mL IFNγ) @ 33 μM
[6] = no IFNγ, 33 μM compound, read-out: % B16F10 growth inhibition (no IFNγ) @ 33 μM
[7] = anti-CD3/anti-CD28 Dynabeads (1:5 beads:cells)

SMILES | inhibition at 33 µM [1, 5] | inhibition at 33 µM [1, 6] | % CD25 within CD8+ [2, 7] | % CD69 within CD8+ [2, 7] | CD25 MFI [2, 7] | CD69 MFI [2, 7] | % CD25 within CD8+ ([2]; no TCR stimulation) | % CD69 within CD8+ ([2]; no TCR stimulation) | CD25 MFI ([2]; no TCR stimulation) | CD69 MFI ([2]; no TCR stimulation) | T cell activation and T cell function [2] | IFNγ [3, 7] | TNFα [3, 7] | mice that achieved complete cures [4] | tolerability [4] | Tumor Growth Inhibition (Max) compared to vehicle [%] [4] | tumor response observed [4] | also measured
COc1ccc2cc(O)c(N3CC(=O)NS3(=O)=O)c(F)c2c1 [Compound 124, 5-(1-fluoro-3-hydroxy-7-methoxynaphthalen-2-yl)-1λ^6,2,5-thiadiazolidine-1,1,3-trione] | 60 to 90% | < 25% | 32.55% | 61.90% | 846.5 | 1421.5 | 0.39% | 0.23% | 57.05 | 28.1 | increased both T cell activation and T cell function | 435 ng/mL | 195 ng/mL | 50% | well tolerated, without obvious adverse health events | 75% | apparent tumor stasis and shrinkage | inhibition at 33 µM ([1]; 33 μM, in the presence of IFNγ, read-out: growth inhibition in the presence of IFNγ compared to DMSO controls): 60 to 90%; % B16F10 growth inhibition (+0.5 ng/mL IFNγ) @ 33 μM ([1]; Table 4, +0.5 ng/mL IFNγ, 33 μM): B (a percent growth inhibition of 60-90%); % B16F10 growth inhibition (no IFNγ) @ 33 μM ([1]; Table 4, no IFNγ, 33 μM): D (a percent growth inhibition of <25%); growth inhibition in the absence of IFNγ ([1]; absence of IFNγ): no observed growth inhibition; IFNγ ([3]; no TCR stimulation): 1.2 ng/mL; TNFα ([3]; no TCR stimulation): 1.4 ng/mL
CC(C)(O)CCOc1ccc2cc(O)c(N3CC(=O)NS3(=O)=O)c(F)c2c1 [Compound 182, 5-[1-fluoro-3-hydroxy-7-(3-hydroxy-3-methylbutoxy)naphthalen-2-yl]-1λ^6,2,5-thiadiazolidine-1,1,3-trione] | 60 to 90% | < 25% | 29.20% | 61.90% | 741 | 1601.5 | 1.17% | 0.45% | 72.4 | 18.3 | increased both T cell activation and T cell function | 189 ng/mL | 135 ng/mL | 50% | well tolerated, without obvious adverse health events | 94% | apparent tumor stasis and shrinkage | 
